This is an account of results in US8394825B2, “Compound” (Sterix Limited, priority 2007, dated 2013).

One may read the melting point as the temperature of the solid-liquid transition. The compound `COc1cc2c(cc1O[Si](C(C)C)(C(C)C)C(C)C)CCN(Cc1cccc([N+](=O)[O-])c1)C2` showed a melting point of 57.3 to 58.6 °C.

On to `COc1cc2c(cc1OCc1ccccc1)CCN(Cc1cccc(O[Si](C(C)C)(C(C)C)C(C)C)c1)C2`, for which the melting point lay in the range of 78 to 79 °C.

Turning to `COc1cc2c(cc1OCc1ccccc1)CCN(Cc1ccc(C#N)cc1)C2` [29A, 6-Benzyloxy-2-(4-cyanobenzyl)-7-methoxy-1,2,3,4-tetrahydroisoquinoline], the melting point lay within 161 to 162 °C.

Consider `COC(=O)c1cccc(CN2CCc3cc(O)c(OC)cc3C2)c1` [70A, 2-(3-(Methoxycarbonyl)benzyl)-6-hydroxy-7-methoxy-1,2,3,4-tetrahydroisoquinoline], for which the melting point was in the range of 156 to 158 °C.

The compound `COC(=O)c1ccccc1S(=O)(=O)N1CCc2cc(O)c(OC)cc2C1` [186A, 7-Methoxy-2-(2-(methoxycarbonyl)benzenesulfonyl)-6-hydroxy-1,2,3,4-tetrahydroisoquinoline] registered a melting point of 134 to 138 °C.

In turn, `COc1cc2c(cc1O)CCN(S(=O)(=O)c1cccc(CC(=O)O)c1)C2=O` [203A, 6-Hydroxy-7-methoxy-2-(3-carboxymethyl-benzenesulfonyl)-3,4-dihydro-2H-isoquinolin-1-one] showed a melting point of 236 to 239 °C.

Regarding `Oc1ccc2c(c1)CCN(Cc1ccc3c(c1)OCO3)C2` [B2, 2-Piperonyl-1,2,3,4-tetrahydroisoquinolin-6-ol], the melting point was in the range of 63 to 87 °C.

As for `CCOc1cccc(C(=O)N2CCc3cc(O)ccc3C2)c1` [B4, 2-(3-Ethoxybenzoyl)-1,2,3,4-tetrahydroisoquinolin-6-ol], the melting point lay within 150 to 151 °C.

Regarding `COc1cc(CC(=O)N2CCc3cc(O)ccc3C2)cc(OC)c1OC` [B5, 2-(3,4,5-Trimethoxyphenylacetyl)-1,2,3,4-tetrahydroisoquinolin-6-ol], the melting point was 37 to 53 °C.

`CCOc1ccc(C(=O)N2CCc3cc(O)ccc3C2)cc1OCC` [B6, 2-(3,4-Diethoxybenzoyl)-1,2,3,4-tetrahydroisoquinolin-6-ol] returned a melting point of 149 to 160 °C.

`COc1ccc(OC)c(C(=O)N2CCc3cc(O)ccc3C2)c1` [B7, 2-(2,5-Dimethoxybenzoyl)-1,2,3,4-tetrahydroisoquinolin-6-ol] registered a melting point of 61 to 86 °C.

As to `COc1ccc(C(=O)N2CCc3cc(O)ccc3C2)c(OC)c1` [B8, 2-(2,4-Dimethoxybenzoyl)-1,2,3,4-tetrahydroisoquinolin-6-ol], the melting point fell in the range of 62 to 87 °C.

The compound `COc1cccc(C(=O)N2CCc3cc(O)ccc3C2)c1OC` [B9, 2-(2,3-Dimethoxybenzoyl)-1,2,3,4-tetrahydroisoquinolin-6-ol] gave a melting point of 167 to 172 °C.

As for `COc1ccc(C(=O)N2CCc3cc(O)ccc3C2)cc1OC` [B10, 2-(3,4-Dimethoxybenzoyl)-1,2,3,4-tetrahydroisoquinolin-6-ol], the melting point lay in the range of 58 to 77 °C.

`COc1cc(OC)c(C(=O)N2CCc3cc(O)ccc3C2)cc1OC` [B11, 2-(2,4,5-Trimethoxybenzoyl)-1,2,3,4-tetrahydroisoquinolin-6-ol] gave a melting point of 180 to 188 °C.

The compound `CCOc1cc(C(=O)N2CCc3cc(O)ccc3C2)cc(OCC)c1OCC` [B14, 2-(3,4,5-Triethoxybenzoyl)-1,2,3,4-tetrahydroisoquinolin-6-ol] displayed a melting point of 158 °C.

For `COc1ccccc1CN1CCc2cc(O)ccc2C1` [B16, 2-(2-Methoxybenzyl)-1,2,3,4-tetrahydroisoquinolin-6-ol], the melting point lay within 148 to 155 °C.

In turn, `COc1ccc(CN2CCc3cc(O)ccc3C2)cc1` [B17, 2-(4-methoxybenzyl)-1,2,3,4-tetrahydroisoquinolin-6-ol] displayed a melting point of 158 to 160 °C.

The compound `CCOc1cccc(CN2CCc3cc(O)ccc3C2)c1` [B18, 2-(3-Ethoxybenzyl)-1,2,3,4-tetrahydroisoquinolin-6-ol] returned a melting point of 120 to 121 °C.

For `COc1ccc(OC)c(CN2CCc3cc(O)ccc3C2)c1` [B19, 2-(2,5-Dimethoxybenzyl)-1,2,3,4-tetrahydroisoquinolin-6-ol], the melting point was 178 to 192 °C.

As for `COc1cc(CN2CCc3cc(O)ccc3C2)cc(OC)c1` [B20, 2-(3,5-Dimethoxybenzyl)-1,2,3,4-tetrahydroisoquinolin-6-ol], the melting point was 189 to 195 °C.

As to `COc1cccc(CN2CCc3cc(O)ccc3C2)c1OC` [B21, 2-(2,3-Dimethoxybenzyl)-1,2,3,4-tetrahydroisoquinolin-6-ol], the melting point is 111 to 115 °C.

The compound `CCOc1ccc(CN2CCc3cc(O)ccc3C2)cc1OCC` [B22, 2-(3,4-Diethoxybenzyl)-1,2,3,4-tetrahydroisoquinolin-6-ol] gave a melting point of 150 to 154 °C.

`COc1ccc(CN2CCc3cc(O)ccc3C2)cc1OC` [B23, 2-(3,4-Dimethoxybenzyl)-1,2,3,4-tetrahydroisoquinolin-6-ol] displayed a melting point of 119 to 122 °C.

Compound `Oc1ccc2c(c1)CCN(Cc1ccc3c(c1)OCO3)C2` [B24, 2-(Benzo[d][1,3]dioxol-5-ylmethyl)-1,2,3,4-tetrahydroisoquinolin-6-ol] showed a melting point of 169 to 172 °C.

On to `COc1ccc(CN2CCc3cc(O)ccc3C2)c(OC)c1` [B25, 2-(2,4-Dimethoxybenzyl)-1,2,3,4-tetrahydroisoquinolin-6-ol], for which the melting point lay in the range of 149 to 152 °C.

`COc1cc(OC)c(OC)cc1CN1CCc2cc(O)ccc2C1` [B26, 2-(2,4,5-Trimethoxybenzyl)-1,2,3,4-tetrahydroisoquinolin-6-ol] had a melting point of 188 to 191 °C.

The compound `CCOc1cc(CN2CCc3cc(O)ccc3C2)cc(OCC)c1OCC` [B27, 2-(3,4,5-triethoxybenzyl)-1,2,3,4-tetrahydroisoquinolin-6-ol] displayed a melting point of 140 to 142 °C.

As to `COc1cc(O)c(CN2CCc3cc(O)ccc3C2)c(OC)c1` [B28, 2-(2-Hydroxy-4,6-dimethoxybenzyl)-1,2,3,4-tetrahydroisoquinolin-6-ol], the melting point is 109 to 112 °C.

Turning to `COc1cc(CCN2CCc3cc(O)ccc3C2)cc(OC)c1OC` [B29, 2-(3,4,5-Trimethoxyphenethyl)-1,2,3,4-tetrahydroisoquinolin-6-ol], the melting point was 180 to 186 °C.

In the case of `COc1cc(OC)c(C(=O)N2CCc3cc(OCc4ccccc4)c(OC)cc3C2)c(OC)c1` [F1, 6-Benzyloxy-7-methoxy-2-(2,4,6-trimethoxybenzoyl)-1,2,3,4-tetrahydroisoquinoline], the melting point lay within 70 to 72 °C.

With `COc1cc(OC)c(CN2CCc3cc(OCc4ccccc4)c(OC)cc3C2)c(OC)c1` [F2, 6-Benzyloxy-7-methoxy-2-(2,4,6-trimethoxybenzyl)-1,2,3,4-tetrahydroisoquinoline], the melting point lay within 129 to 131 °C.

For `COc1cc(OC)c(CN2CCc3cc(O)c(OC)cc3C2)c(OC)c1` [F3, 7-Methoxy-2-(2,4,6-trimethoxybenzyl)-1,2,3,4-tetrahydroisoquinolin-6-ol], the melting point was 150 to 151 °C.

In turn, `COc1cc2c(cc1OCc1ccccc1)CCN(Cc1cc(F)cc(F)c1)C2` [F5, 6-Benzyloxy-2-(3,5-difluorobenzyl)-7-methoxy-1,2,3,4-tetrahydroisoquinoline] yielded a melting point of 116 to 117 °C.

Compound `COc1cc2c(cc1O)CCN(Cc1cc(F)cc(F)c1)C2` [F6, 2-(3,5-Difluorobenzyl)-7-methoxy-1,2,3,4-tetrahydroisoquinolin-6-ol] came in with a melting point of 110 to 111 °C.

Take `COc1cccc(CN2Cc3cc(OC)c(OCc4ccccc4)cc3C(O)C2)c1` (stereo not shown) [F17, 6-Benzyloxy-7-methoxy-2-(3-methoxybenzyl)-1,2,3,4-tetrahydroisoquinolin-4-ol]: the melting point lay within 115 to 116 °C.

`COc1ccccc1CN1Cc2cc(OC)c(OCc3ccccc3)cc2C(OC)C1` (stereo not shown) [F19, 6-Benzyloxy-4,7-dimethoxy-2-(2-methoxybenzyl)-1,2,3,4-tetrahydroisoquinoline] had a melting point of 101 to 102 °C.

For `COc1cccc(CN2Cc3cc(OC)c(OCc4ccccc4)cc3C(OC)C2)c1` (stereo not shown) [F20, 6-Benzyloxy-4,7-dimethoxy-2-(3-methoxybenzyl)-1,2,3,4-tetrahydroisoquinoline], the melting point fell in the range of 96 to 97 °C.

The compound `COc1cc2c(cc1OCc1ccccc1)C(OC)CN(Cc1cc(OC)c(OC)c(OC)c1)C2` (stereo not shown) [F22, 6-Benzyloxy-4,7-dimethoxy-2-(3,4,5-trimethoxybenzyl)-1,2,3,4-tetrahydroisoquinoline] showed a melting point of 89 to 90 °C.

On to `CCOC1CN(Cc2ccc(OC)cc2)Cc2cc(OC)c(OCc3ccccc3)cc21` (stereo not shown) [F25, 6-Benzyloxy-4-ethoxy-7-methoxy-2-(4-methoxybenzyl)-1,2,3,4-tetrahydroisoquinoline], for which the melting point was 84 to 85 °C.

Compound `CCOC1CN(Cc2cc(OC)c(OC)c(OC)c2)Cc2cc(OC)c(OCc3ccccc3)cc21` (stereo not shown) [F26, 6-Benzyloxy-4-ethoxy-7-methoxy-2-(3,4,5-trimethoxybenzyl)-1,2,3,4-tetrahydro-isoquinoline] displayed a melting point of 132 to 133 °C.

Consider `COc1cccc(CN2Cc3cc(OC)c(O)cc3C(O)C2)c1` (stereo not shown) [F28, 7-Methoxy-2-(3-methoxybenzyl)-1,2,3,4-tetrahydroisoquinoline-4,6-diol], for which the melting point lay in the range of 137 to 138 °C.

For the compound `COc1cc2c(cc1O)C(O)CN(Cc1cc(OC)c(OC)c(OC)c1)C2` (stereo not shown) [F29, 7-Methoxy-2-(3,4,5-trimethoxybenzyl)-1,2,3,4-tetrahydroisoquinoline-4,6-diol], the melting point is 62 to 63 °C.

On to `COc1cc2c(cc1O)C(OC)CN(Cc1ccccc1OC)C2` (stereo not shown) [F30, 4,7-Dimethoxy-2-(2-methoxybenzyl)-1,2,3,4-tetrahydro-isoquinolin-6-ol], for which the melting point was in the range of 45 to 47 °C.

`COc1cccc(CN2Cc3cc(OC)c(O)cc3C(OC)C2)c1` (stereo not shown) [F31, 4,7-Dimethoxy-2-(3-methoxybenzyl)-1,2,3,4-tetrahydro-isoquinolin-6-ol] gave a melting point of 133 to 134 °C.

The compound `COc1ccc(CN2Cc3cc(OC)c(O)cc3C(OC)C2)cc1` (stereo not shown) [F32, 4,7-Dimethoxy-2-(4-methoxybenzyl)-1,2,3,4-tetrahydro-isoquinolin-6-ol] returned a melting point of 84 to 85 °C.
